From US20230130109A1, “MACROCYCLIC INDOLE DERIVATIVES AS INHIBITORS OF MCL-1” (priority 2020, published 2023)
Like-named read-outs stand apart in the source and are kept apart here.

How the values were obtained:
[1] = molecular target: T1, Myeloid Cell Leukemia 1 (Mcl-1) (Homo sapiens, UniProt Q07820); test: biochemical; type: binding
T1 construct: Terbium (Tb) label; means of attachment not described

[2] = tested on: MOLP-8 human multiple myeloma cell line; test: Caspase-Glo 3/7 apoptosis induction assay in MOLP-8 cells; type: cell-based; settings: averaged over all runs on all batches
Excerpt: MCL-1 is a regulator of apoptosis and is highly over-expressed in tumor cells that escape cell death. The assay evaluates the cellular potency of small-molecule compounds targeting regulators of the apoptosis pathway, primarily MCL-1, Bfl-1, Bcl-2, and other proteins of the Bcl-2 family. Protein-protein inhibitors disrupting the interaction of anti-apoptotic regulators with BH3-domain proteins initiate apoptosis.
The Caspase-Glo® 3/7 Assay is a luminescent assay that measures caspase-3 and −7 activities in purified enzyme preparations or cultures of adherent or suspension cells. The assay provides a proluminescent caspase-3/7 substrate, which contains the tetrapeptide sequence DEVD. This substrate is cleaved to release aminoluciferin, a substrate of luciferase used in the production of light. Addition of the single Caspase-Glo® 3/7 Reagent in an “add-mix-measure” format results in cell lysis, followed by caspase cleavage of the substrate and generation of a “glow-type” luminescent signal.
This assay uses the MOLP-8 human multiple myeloma cell line, which is sensitive to MCL-1 inhibition.
Cell cultures were maintained between 0.2 and 2.0×10^6 cells/mL. The cells were harvested by collection in 50 mL conical tubes. The cells were then pelleted at 500 g for 5 mins before removing supernatant and resuspension in fresh pre-warmed culture medium. The cells were counted and diluted as needed.
The assay reagent was prepared by transferring the buffer solution to the substrate vial and mixing. The solution may be stored for up to 1 week at 4° C. with negligible loss of signal.
Compounds were delivered in assay-ready plates (Proxiplate) and stored at −20° C.
Assays always include 1 reference compound plate containing reference compounds. The plates were spotted with 40 nL of compounds (0.5% DMSO final in cells; serial dilution; […] highest conc. 1/3 dilution, 10 doses, duplicates). The compounds were used at room temperature and 4 μL of pre-warmed media was added to all wells except column 2 and 23. The negative control was prepared by adding 1% DMSO in media. The positive control was prepared by adding the appropriate positive control compound in final concentration of […] in media. The plate was prepared by adding 4 μL negative control to column 23, 4 μL positive control to column 2 and 4 μL cell suspension to all wells in the plate. The plate with cells was then incubated at 37° C. for 2 hours. The assay signal reagent is the Caspase-Glo solution described above, and 8 μL was added to all wells. The plates were then sealed and measured after 30 minutes.
The activity of a test compound was calculated as percent change in apoptosis induction as follows: […]

[3] = Homo sapiens, MOLP-8, 2 h, read-out: MOLP8 Caspase-Glo AC50 (nM) LD value, MOLP-8 cells, 2 hours at 37° C., caspase-3/7 luminescence
[4] = read-out: MOLP8 Caspase-Glo AC50 (nM) LD value, MOLP-8 cells, 2 hours at 37° C., caspase-3/7 luminescence

T1 sequence (Q07820 whole entry): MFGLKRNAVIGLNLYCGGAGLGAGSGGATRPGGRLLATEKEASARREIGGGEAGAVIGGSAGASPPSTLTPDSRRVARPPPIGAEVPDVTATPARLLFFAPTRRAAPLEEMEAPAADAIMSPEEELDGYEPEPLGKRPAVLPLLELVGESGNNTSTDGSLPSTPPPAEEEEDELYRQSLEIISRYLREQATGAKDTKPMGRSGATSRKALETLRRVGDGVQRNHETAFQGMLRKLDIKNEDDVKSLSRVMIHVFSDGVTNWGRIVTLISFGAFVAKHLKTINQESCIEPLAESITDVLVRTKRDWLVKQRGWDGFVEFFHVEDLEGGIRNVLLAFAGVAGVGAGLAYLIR

SMILES	Ki ([1]; TB-MCL1 Ki (nM)) [nM]	AC50 [2, 3] [nM]	AC50 [2, 4] [nM]	Ki ([1]; read-out: TB-MCL1 Ki) [nM]
COCC(COC)n1nc(C)c2c1CSCc1cc(n(C)n1)CCc1cc(c3ccc(F)cc3c1)OCCCn1c(C(=O)O)c(C)c3c-2c(Cl)ccc31 [Compound 20]	0.026	8.8		
Cc1nn(CCC2CCOCC2)c2c1-c1c(Cl)ccc3c1c(C)c(C(=O)O)n3CCCOc1cc(cc3cc(F)ccc13)CCc1cc(nn1C)CSC2 [Compound 22]	0.029	20.1		
COCCOCCOCCn1nc(C)c2c1CSCc1cc(n(C)n1)CCc1cc(c3ccc(F)cc3c1)OCCCn1c(C(=O)O)c(C)c3c-2c(Cl)ccc31 [Compound 16]	0.024	19.7		
CNCCn1nc(C)c2c1CSCc1cc(n(C)n1)CCc1cc(c3ccc(F)cc3c1)OCCCn1c(C(=O)O)c(C)c3c-2c(Cl)ccc31 (single isomer, unassigned) [Compound 69]	0.014	402		
Cc1nn(CCCN)c2c1-c1c(Cl)ccc3c1c(C)c(C(=O)O)n3CCCOc1cc(cc3cc(F)ccc13)CCc1cc(nn1C)CSC2 [Compound 38]	0.019	540		
Cc1c(C(=O)O)n2c3ccc(Cl)c(c13)-c1c(nn(C)c1C)CN(C)Cc1cc(n(C)n1)CCc1cc(c3ccc(F)cc3c1)OCCC2 [Compound 9]			1170	
COCCOCCn1nc(C)c2c1CSCc1cc(n(C)n1)CCc1cc(c3ccc(F)c(F)c3c1)OCCCn1c(C(=O)O)c(C)c3c-2c(Cl)ccc31 [Compound 62]	0.027	11.3		
Cc1c(C(=O)O)n2c3ccc(Cl)c(c13)-c1c(nn(C)c1C)CS(=O)(=O)Cc1cc(n(C)n1)CCc1cc(c3ccccc3c1)OCCC2 [Compound 6]	0.059		931	
COCCOCCn1nc(C)c2c1CSCc1cc(n(C)n1)CCc1cc(c3ccc(F)c(F)c3c1)OCCCn1c(C(=O)O)c(C)c3c-2c(Cl)ccc31 (single isomer, unassigned) [Compound 64]	2.33	2100		
Cc1c(C(=O)O)n2c3ccc(Cl)c(c13)-c1c(nn(C)c1C)CSCc1cc(n(C)n1)CCc1cc(c3c(F)cccc3c1)OCCC2 [Compound 5]	0.411	1290		
Cc1c(C(=O)O)n2c3ccc(Cl)c(c13)-c1c(nn(CCC3CCOCC3)c1C)CSCc1cc(n(C)n1)CCc1cc(c3ccc(F)cc3c1)OCCC2 [Compound 23]	0.016	30.6		
COCCOCCn1nc(C)c2c1C[S+]([O-])Cc1cc(n(C)n1)CCc1cc(c3ccc(F)cc3c1)OCCCn1c(C(=O)O)c(C)c3c-2c(Cl)ccc31 (single isomer, unassigned) [Compound 49]	0.01	141		
COCCOCCn1nc(C)c2c1C[S+]([O-])Cc1cc(n(C)n1)CCc1cc(c3ccc(F)cc3c1)OCCCn1c(C(=O)O)c(C)c3c-2c(Cl)ccc31 (single isomer, unassigned) [Compound 50]	0.013		83.6	
COCCOCCOCCn1nc2c(c1C)-c1c(Cl)ccc3c1c(C)c(C(=O)O)n3CCCOc1cc(cc3cc(F)ccc13)CCc1cc(nn1C)CSC2 [Compound 17]	0.018	46.8		
Cc1c(C(=O)O)n2c3ccc(Cl)c(c13)-c1c(nn(C)c1C)CSCc1cc(n(C)n1)CCc1cc(c3ccccc3c1)OCCC2 [Compound 2]	0.483	1260		
COCCn1nc(C)c2c1CSCc1cc(n(C)n1)CCc1cc(c3ccc(Cl)cc3c1)OCCCn1c(C(=O)O)c(C)c3c-2c(Cl)ccc31 [Compound 47]			2710	

SMILES	Ki ([1]; TB-MCL1 Ki (nM)) [nM]	AC50 [2, 3] [nM]	AC50 [2, 4] [nM]	Ki ([1]; read-out: TB-MCL1 Ki) [nM]
Cc1nn(CCOCCO)c2c1-c1c(Cl)ccc3c1c(C)c(C(=O)O)n3CCCOc1cc(cc3cc(F)ccc13)CCc1cc(nn1C)CSC2 [Compound 51]	0.013	87.3		
COCCOCCn1nc(C)c2c1CSCc1cc(n(C)n1)CCc1cc(c3ccc(F)cc3c1)OCCCn1c(C(=O)O)c(C)c3c-2c(Cl)ccc31 [Compound 31]				0.015
Cc1c(C(=O)O)n2c3ccc(Cl)c(c13)-c1c(nn(C)c1C)CN(C)Cc1cc(n(C)n1)CCc1cc(c3ccc(F)cc3c1)OCCC2 [Compound 8]			68.8	
COCCn1nc(C)c2c1CSCc1cc(n(C)n1)CCc1cc(c3ccc(F)cc3c1)OCCCn1c(C(=O)O)c(C)c3c-2c(Cl)ccc31 [Compound 18]	0.025	17		
COCCn1nc(C)c2c1CSCc1cc(n(C)n1)CCc1cc(c3ccc(Cl)cc3c1)OCCCn1c(C(=O)O)c(C)c3c-2c(Cl)ccc31 [Compound 41]			568	
CNCCn1nc2c(c1C)-c1c(Cl)ccc3c1c(C)c(C(=O)O)n3CCCOc1cc(cc3cc(F)ccc13)CCc1cc(nn1C)CSC2 (single isomer, unassigned) [Compound 68]	0.008	440		
COCCOCCn1nc2c(c1C)-c1c(Cl)ccc3c1c(C)c(C(=O)O)n3CCCOc1cc(cc3c(F)c(F)ccc13)CCc1cc(nn1C)CSC2 (single isomer, unassigned) [Compound 63]	0.026		22	
COCCn1nc2c(c1C)-c1c(Cl)ccc3c1c(C)c(C(=O)O)n3CCCOc1cc(cc3cc(F)ccc13)CCc1cc(nn1C)CSC2 [Compound 19]	0.035	20.7		
COCCOCCn1nc2c(c1C)-c1c(Cl)ccc3c1c(C)c(C(=O)O)n3CCCOc1cc(cc3c(F)c(F)ccc13)CCc1cc(nn1C)CSC2 (single isomer, unassigned) [Compound 65]	2.98		1600	
Cc1nn(C)c2c1-c1c(Cl)ccc3c1c(C)c(C(=O)O)n3CCCOc1cc(cc3cc(F)ccc13)CCc1cc(nn1C)CSC2 [Compound 28]	0.028	16.7		
Cc1nn(CCO)c2c1-c1c(Cl)ccc3c1c(C)c(C(=O)O)n3CCCOc1cc(cc3cc(F)ccc13)CCc1cc(nn1C)CSC2 [Compound 53]			1250	
COCCOCCn1nc(C)c2c1CS(=O)(=O)Cc1cc(n(C)n1)CCc1cc(c3ccc(F)cc3c1)OCCCn1c(C(=O)O)c(C)c3c-2c(Cl)ccc31 (single isomer, unassigned) [Compound 67]	0.017	104		
COCC(COC)n1nc2c(c1C)-c1c(Cl)ccc3c1c(C)c(C(=O)O)n3CCCOc1cc(cc3cc(F)ccc13)CCc1cc(nn1C)CSC2 [Compound 21]	0.066	49.5		
Cc1c(C(=O)O)n2c3ccc(Cl)c(c13)-c1c(nn(C)c1C)CS(=O)(=O)Cc1cc(n(C)n1)CCc1cc(c3ccccc3c1)OCCC2 [Compound 7]	1.71		11900	
Cc1nn(CCO)c2c1-c1c(Cl)ccc3c1c(C)c(C(=O)O)n3CCCOc1cc(cc3cc(F)ccc13)CCc1cc(nn1C)CSC2 [Compound 52]			39.4	
